Consider four molecules from patent publication US10645930B2, “Fungicidal mixtures based on prothioconazole and a strobilurin derivative” (BASF SE, priority 2002, dated 2020).

SMILES strings stand for the structures.

For assay [1], the system named is Erysiphe [syn. Blumeria] graminis forma specialis. tritici. The assay can be described thus: Activity against mildew of wheat (protective, wheat seedlings cultivar Kanzler). In kind it is in vivo. The settings on record: 7 days. Here is the method:
The active compounds, separately or together, were formulated as a 10% emulsion in a mixture of 63% by weight of cyclohexanone and 27% by weight of emulsifier, and diluted with water to the desired concentration. Evaluation was carried out by determining the infected leaf areas in percent. These percentages were converted into efficacies. The efficacy (W) was determined as follows using Abbot's formula: [formula] α corresponds to the fungal infection of the treated plants in % and β corresponds to the fungal infection of the untreated (control) plants in % An efficacy of 0 means that the infection level of the treated plants corresponds to that of the untreated control plants; an efficacy of 100 means that the treated plants were not infected. The expected efficacies of the mixtures of the active compounds were determined using Colby's formula [R. S. Colby, Weeds 15, 20-22 (1967)] and compared with the observed efficacies. E=x+y−x·y/100 Colby's formula: • E expected efficacy, expressed in % of the untreated control, when using the mixture of the active compounds A and B at the concentrations a and b • x efficacy, expressed in % of the untreated control, when using the active compound A at the concentration a • y efficacy, expressed in % of the untreated control, when using the active compound B at the concentration b Leaves of wheat seedlings of the cultivar “Kanzler” grown in pots were sprayed to runoff point with an aqueous preparation of active compound which had been prepared from a stock solution comprising 10% of active compound, 85% of cyclohexanone. and 5% of emulsifier, and, 24 hours after the spray coating had dried on, the leaves were dusted with spores of mildew of wheat (Erysiphe [syn. Blumeria] graminis forma specialis. tritici). The test plants were then placed in a greenhouse at 20-24° C. and 60-90% relative atmospheric humidity. After 7 days, the extent of the development of the mildew was determined visually in % infection of the entire leaf area. The visually determined values for the percentage of diseased leaf areas were converted into efficacies as % of the untreated control. An efficacy of 0 means the same disease level as in the untreated control, an efficacy of 100 means a disease level of 0%. The expected efficacies for the active compound combinations were determined using Colby's formula mentioned above and compared with the observed efficacies.

Assay [2] deals with Puccinia recondita. As to the kind of experiment: Curative activity against brown rust of wheat (wheat seedlings cultivar Kanzler). The settings on record: 7 days. It counts as in vivo. Here is the method:
The active compounds, separately or together, were formulated as a 10% emulsion in a mixture of 63% by weight of cyclohexanone and 27% by weight of emulsifier, and diluted with water to the desired concentration. Evaluation was carried out by determining the infected leaf areas in percent. These percentages were converted into efficacies. The efficacy (W) was determined as follows using Abbot's formula: [formula] α corresponds to the fungal infection of the treated plants in % and β corresponds to the fungal infection of the untreated (control) plants in % An efficacy of 0 means that the infection level of the treated plants corresponds to that of the untreated control plants; an efficacy of 100 means that the treated plants were not infected. The expected efficacies of the mixtures of the active compounds were determined using Colby's formula [R. S. Colby, Weeds 15, 20-22 (1967)] and compared with the observed efficacies. E=x+y−x·y/100 Colby's formula: • E expected efficacy, expressed in % of the untreated control, when using the mixture of the active compounds A and B at the concentrations a and b • x efficacy, expressed in % of the untreated control, when using the active compound A at the concentration a • y efficacy, expressed in % of the untreated control, when using the active compound B at the concentration b Leaves of wheat seedlings of the cultivar “Kanzler” grown in pots were dusted with spores of brown rust (Puccinia recondita). The pots were then placed in a chamber with high atmospheric humidity (90-95%), at 20-22° C. for 24 hours. During this time, the spores germinated and the germinal tubes penetrated into the leaf tissue. The next day, the infected plants were sprayed to runoff point with an aqueous formulation of active compound prepared from a stock solution comprising 10% of active compound, 85% of cyclohexanone and 5% of emulsifier. After the spray coating had dried on, the test plants were cultivated in a greenhouse at 20-22° C. and 65-70% relative atmospheric humidity for 7 days. Thereafter, the extent of the rust fungus development on the leaves was determined. The visually determined values for the percentage of diseased leaf areas were converted into efficacies as % of the untreated control. An efficacy of 0 means the same disease level as in the untreated control, an efficacy of 100 means a disease level of 0%. The expected efficacies for the combinations of active compounds were determined using Colby's formula mentioned above and compared with the observed efficacies.

Where [3] appears, read: 0.25 ppm active compound in the spray liquor.
The mark [4] stands for this setting: 0.06 ppm active compound in the spray liquor.
[5] abbreviates: 1 ppm active compound in the spray liquor.
The mark [6] stands for this setting: 4 ppm active compound in the spray liquor.
[7] abbreviates: 0.015 ppm active compound in the spray liquor.

For `CO/C=C(/C(=O)OC)c1ccccc1COc1cccc(C(F)(F)F)n1` [Compound III, picoxystrobin], the “Efficacy in % of the untreated control” value in assay [1] (setting [3]) is given as 11 % of the untreated control; in assay [2] (setting [4]) it was 0 % of the untreated control; in assay [2] (setting [3]), 0 % of the untreated control; in assay [2] (setting [5]), 33 % of the untreated control.

Take `CO/N=C(/C(=O)OC)c1ccccc1CO/N=C(\C)c1cccc(C(F)(F)F)c1` [Compound II, trifloxystrobin]: the “Efficacy in % of the untreated control” value in assay [1] (setting [4]) was 0 % of the untreated control; in assay [1] (setting [3]), 22 % of the untreated control; in assay [1] (setting [5]), 44 % of the untreated control; in assay [1] (setting [6]), 83 % of the untreated control; in assay [2] (setting [4]), 0 % of the untreated control; in assay [2] (setting [3]), 0 % of the untreated control.

Consider `COC(=O)N(OC)c1ccccc1COc1ccn(-c2ccc(Cl)cc2)n1` [Compound IV, pyraclostrobin], for which the “Efficacy in % of the untreated control” value in assay [1] (setting [3]), in assay [1] (setting [5]), in assay [2] (setting [4]) and in assay [2] (setting [3]) was 0 % of the untreated control throughout.

With `OC(Cc1ccccc1Cl)(Cn1nc[nH]c1=S)C1(Cl)CC1` (centres unmarked) [Compound I, 2-[2-(1-chlorocyclopropyl)-3-(2-chlorophenyl)-2-hydroxypropyl]-2,4-dihydro-[1,2,4]-triazole-3-thione], the “Efficacy in % of the untreated control” value is reported as 0 % of the untreated control in assay [1] (setting [7]); 0 % of the untreated control in assay [1] (setting [4]); 0 % of the untreated control in assay [1] (setting [3]); 0 % of the untreated control in assay [1] (setting [5]); 22 % of the untreated control in assay [1] (setting [6]); 0 % of the untreated control in assay [2] (0.006 ppm active compound in the spray liquor). The “Efficacy in % of the untreated control” value in assay [2] (setting [7]), in assay [2] (setting [3]) and in assay [2] (setting [5]) was 0 % of the untreated control throughout.
